Calls of active or inactive are those of the source. The rule behind the calls is not given here.
Legend:
[1] = biological target: C-X-C chemokine receptor type 4 (Homo sapiens, UniProt P61073, E275A); test: (§1) Inhibition of Mab 12G5 binding to CXCR4 E275A mutant expressed in HEK293 cells; format: cell-based
[2] = test system: C-X-C chemokine receptor type 4 (Homo sapiens), P61073 [E275A]; test: as §1; format: cell-based
[3] = test system: Human immunodeficiency virus 1; test: Antiviral activity against HIV1 A018G infected in human PBMC assessed as inhibition of viral p24 antigen production after 7 to 10 days by ELISA; format: functional, organism-based; details: Human immunodeficiency virus 1, A018G
[4] = biological target: C-X-C chemokine receptor type 4 (Homo sapiens, UniProt P61073, V280A); test: (§2) Inhibition of Mab 12G5 binding to CXCR4 V280A mutant expressed in HEK293 cells; format: cell-based
C-X-C chemokine receptor type 4 (Homo sapiens, UniProt P61073, V280A), sequence (P61073 whole entry V280A): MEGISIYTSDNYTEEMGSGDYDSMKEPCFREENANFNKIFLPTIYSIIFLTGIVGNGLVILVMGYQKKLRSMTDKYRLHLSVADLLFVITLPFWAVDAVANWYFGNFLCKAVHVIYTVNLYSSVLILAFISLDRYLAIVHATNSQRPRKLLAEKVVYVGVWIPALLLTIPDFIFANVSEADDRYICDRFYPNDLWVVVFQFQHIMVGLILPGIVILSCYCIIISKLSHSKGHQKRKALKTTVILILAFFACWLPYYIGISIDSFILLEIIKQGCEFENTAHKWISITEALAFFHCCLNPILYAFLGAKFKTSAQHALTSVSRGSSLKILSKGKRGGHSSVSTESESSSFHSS

[5] = test system: C-X-C chemokine receptor type 4 (Homo sapiens), P61073 [V280A]; test: as §2; format: cell-based
C-X-C chemokine receptor type 4 (Homo sapiens), P61073 [V280A], sequence (P61073 whole entry V280A): as above

[6] = test system: Human immunodeficiency virus 1; test: Antiviral activity against HIV1 X4 infected in human PBMC assessed as inhibition of viral p24 antigen production after 7 to 10 days by ELISA; format: functional, organism-based; details: Human immunodeficiency virus 1, X4
[7] = Oral bioavailability in Sprague-Dawley rat at 10 mg/kg administered as single dose; format: ADME, organism-based; details: in vivo
[8] = biological target: T1, C-X-C chemokine receptor type 4 (Homo sapiens, UniProt P61073); test: Antagonist activity at CXCR4 expressed in CHO cells assessed as inhibition of SDF1-alpha-induced calcium mobilization by fluorescence assay; format: functional, cell-based
T1 sequence (P61073 whole entry): as the sequence (P61073 whole entry V280A) above, with A280V counted along it

[9] = biological target: T1, C-X-C chemokine receptor type 4; test: Inhibition of Mab 12G5 binding to CXCR4 expressed in human MOLT4 cells at 10 nM measured after 6 hrs post drug washout by FACS analysis; format: cell-based; details: MOLT-4
[10] = biological target: C-C chemokine receptor type 1 (Homo sapiens) (UniProt P32246); test: Displacement of [125I]RANTES form CCR1 expressed in CHO cells by scintillation counting; format: cell-based
C-C chemokine receptor type 1 (Homo sapiens), sequence (P32246 whole entry): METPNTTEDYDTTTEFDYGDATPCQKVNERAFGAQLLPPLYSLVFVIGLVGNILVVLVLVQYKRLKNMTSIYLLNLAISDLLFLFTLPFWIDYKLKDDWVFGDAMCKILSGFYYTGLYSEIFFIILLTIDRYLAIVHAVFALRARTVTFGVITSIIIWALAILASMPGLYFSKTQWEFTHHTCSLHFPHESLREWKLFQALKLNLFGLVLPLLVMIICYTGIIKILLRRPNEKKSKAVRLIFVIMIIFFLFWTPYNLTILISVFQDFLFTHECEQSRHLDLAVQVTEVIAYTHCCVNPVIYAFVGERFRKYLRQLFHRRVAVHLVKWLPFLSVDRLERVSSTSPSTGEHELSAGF

[11] = Clearance in Sprague-Dawley rat at 10 mg/kg, iv administered as single dose; format: ADME, organism-based; design: dose 10 mg/kg, route intravenous; details: in vivo
[12] = biological target: C-X-C chemokine receptor type 4 (Homo sapiens, UniProt P61073, E277A)
C-X-C chemokine receptor type 4 (Homo sapiens, UniProt P61073, E277A), sequence (P61073 whole entry E277A): as the sequence (P61073 whole entry V280A) above, with E277A, A280V counted along it

[13] = test system: C-X-C chemokine receptor type 4 (Homo sapiens), P61073 [W283A]; details: HEK293
C-X-C chemokine receptor type 4 (Homo sapiens), P61073 [W283A], sequence (P61073 whole entry W283A): as the sequence (P61073 whole entry V280A) above, with A280V, W283A counted along it

[14] = biological target: C-C chemokine receptor type 5 (Homo sapiens) (UniProt P51681); test: Displacement of [125I]RANTES form CCR5 expressed in CHO cells by scintillation counting; format: cell-based
C-C chemokine receptor type 5 (Homo sapiens), sequence (P51681 whole entry, looked up): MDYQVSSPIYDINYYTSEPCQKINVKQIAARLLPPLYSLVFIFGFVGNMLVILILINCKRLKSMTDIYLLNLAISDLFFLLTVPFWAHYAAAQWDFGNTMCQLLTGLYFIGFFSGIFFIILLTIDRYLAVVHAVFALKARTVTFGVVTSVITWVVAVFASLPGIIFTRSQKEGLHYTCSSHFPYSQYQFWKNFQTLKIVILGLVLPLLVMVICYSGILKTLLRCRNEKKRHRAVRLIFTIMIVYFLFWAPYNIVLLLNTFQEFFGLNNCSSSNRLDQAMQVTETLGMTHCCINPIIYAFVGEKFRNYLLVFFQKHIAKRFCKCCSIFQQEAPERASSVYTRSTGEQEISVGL

[15] = Half life in Sprague-Dawley rat at 10 mg/kg, iv administered as single dose; format: ADME, organism-based; design: dose 10 mg/kg, route intravenous; details: in vivo
[16] = test system: C-X-C chemokine receptor type 4 (Homo sapiens), P61073 [H113A]; details: HEK293
C-X-C chemokine receptor type 4 (Homo sapiens), P61073 [H113A], sequence (P61073 whole entry H113A): as the sequence (P61073 whole entry V280A) above, with H113A, A280V counted along it

[17] = biological target: C-X-C chemokine receptor type 1 (Homo sapiens) (UniProt P25024); test: Displacement of [125I]IL8 form CXCR1 expressed in CHO cells by scintillation counting; format: cell-based
C-X-C chemokine receptor type 1 (Homo sapiens), sequence (P25024 whole entry): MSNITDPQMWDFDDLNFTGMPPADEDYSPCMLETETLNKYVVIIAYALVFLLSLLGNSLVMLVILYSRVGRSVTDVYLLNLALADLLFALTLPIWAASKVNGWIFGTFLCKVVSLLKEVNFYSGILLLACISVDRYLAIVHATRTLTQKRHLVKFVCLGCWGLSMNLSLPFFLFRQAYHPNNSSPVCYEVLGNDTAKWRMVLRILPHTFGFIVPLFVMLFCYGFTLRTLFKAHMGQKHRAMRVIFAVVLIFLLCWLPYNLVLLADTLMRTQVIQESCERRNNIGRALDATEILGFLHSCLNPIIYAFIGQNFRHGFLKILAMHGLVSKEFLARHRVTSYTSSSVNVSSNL

[18] = biological target: T1, C-X-C chemokine receptor type 4; test: Inhibition of Mab 12G5 binding to CXCR4 expressed in human MOLT4 cells at 10 nM measured post drug washout by FACS analysis; format: cell-based; details: MOLT-4
[19] = biological target: C-X-C chemokine receptor type 4 (Homo sapiens, UniProt P61073, W283A)
C-X-C chemokine receptor type 4 (Homo sapiens, UniProt P61073, W283A), sequence (P61073 whole entry W283A): as the sequence (P61073 whole entry V280A) above, with A280V, W283A counted along it

[20] = biological target: C-X-C chemokine receptor type 4 (Homo sapiens, UniProt P61073, D262A)
C-X-C chemokine receptor type 4 (Homo sapiens, UniProt P61073, D262A), sequence (P61073 whole entry D262A): as the sequence (P61073 whole entry V280A) above, with D262A, A280V counted along it

[21] = Cmax in Sprague-Dawley rat at 10 mg/kg, po administered as single dose; format: ADME, organism-based; design: dose 10 mg/kg, route oral; details: in vivo
[22] = biological target: C-X-C chemokine receptor type 4 (Homo sapiens, UniProt P61073, H203A); test: (§3) Inhibition of Mab 12G5 binding to CXCR4 H203A mutant expressed in HEK293 cells; format: cell-based
C-X-C chemokine receptor type 4 (Homo sapiens, UniProt P61073, H203A), sequence (P61073 whole entry H203A): as the sequence (P61073 whole entry V280A) above, with H203A, A280V counted along it

[23] = test system: C-X-C chemokine receptor type 4 (Homo sapiens), P61073 [H203A]; test: as §3; format: cell-based
C-X-C chemokine receptor type 4 (Homo sapiens), P61073 [H203A], sequence (P61073 whole entry H203A): as the sequence (P61073 whole entry V280A) above, with H203A, A280V counted along it

[24] = test system: Human immunodeficiency virus 1; test: Antiviral activity against HIV1 HXB2 infected in HEK293 cells assessed as inhibition of viral replication after 2 days; format: functional, organism-based; details: Human immunodeficiency virus 1, HXB2, HEK293, 48 h
[25] = test system: C-X-C chemokine receptor type 4 (Homo sapiens), P61073 [H281A]; test: (§4) Inhibition of Mab 12G5 binding to CXCR4 H281A mutant expressed in HEK293 cells; format: cell-based
C-X-C chemokine receptor type 4 (Homo sapiens), P61073 [H281A], sequence (P61073 whole entry H281A): as the sequence (P61073 whole entry V280A) above, with A280V, H281A counted along it

[26] = biological target: C-X-C chemokine receptor type 4 (Homo sapiens, UniProt P61073, H281A); test: as §4; format: cell-based
C-X-C chemokine receptor type 4 (Homo sapiens, UniProt P61073, H281A), sequence (P61073 whole entry H281A): as the sequence (P61073 whole entry V280A) above, with A280V, H281A counted along it

[27] = biological target: T1, C-X-C chemokine receptor type 4; test: Displacement of [125I]SDF-1alpha form CXCR4 expressed in human MOLT4 cells by scintillation counting; format: cell-based; details: MOLT-4
[28] = biological target: T1, C-X-C chemokine receptor type 4; test: Inhibition of Mab 12G5 binding to CXCR4 expressed in human MOLT4 cells at 10 nM by FACS analysis; format: cell-based; details: MOLT-4
[29] = test system: C-X-C chemokine receptor type 4 (Homo sapiens), P61073 [D171A]; details: HEK293
C-X-C chemokine receptor type 4 (Homo sapiens), P61073 [D171A], sequence (P61073 whole entry D171A): as the sequence (P61073 whole entry V280A) above, with D171A, A280V counted along it

[30] = test system: Human immunodeficiency virus 1; test: Antiviral activity against HIV1 NL4-3 infected in HEK293 cells assessed as inhibition of viral replication after 2 days; format: functional, organism-based; details: Human immunodeficiency virus 1, NL4-3, HEK293, 48 h
[31] = test system: Human immunodeficiency virus 1; test: Antiviral activity against HIV1 NL4-3 infected in SCID mouse assessed as viral p24 antigen level in spleen at 10 mg/kg, po administered as single dose after 7 days; format: functional
[32] = Volume of distribution at steady state in Sprague-Dawley rat at 10 mg/kg, iv administered as single dose; format: ADME, organism-based; design: dose 10 mg/kg, route intravenous; details: in vivo
[33] = biological target: C-X-C chemokine receptor type 4 (Homo sapiens, UniProt P61073, H113A)
C-X-C chemokine receptor type 4 (Homo sapiens, UniProt P61073, H113A), sequence (P61073 whole entry H113A): as the sequence (P61073 whole entry V280A) above, with H113A, A280V counted along it

[34] = test system: Human immunodeficiency virus 1; test: Antiviral activity against multidrug resistant HIV1 HXB2 infected in HEK293 cells assessed as inhibition of viral replication after 2 days; format: functional, organism-based; details: Human immunodeficiency virus 1, HXB2, HEK293, 48 h
[35] = test system: Human immunodeficiency virus 1; test: Antiviral activity against PI-resistant HIV1 HXB2 infected in HEK293 cells assessed as inhibition of viral replication after 2 days; format: functional, organism-based; details: Human immunodeficiency virus 1, HXB2, HEK293, 48 h
[36] = test system: C-X-C chemokine receptor type 4 (Homo sapiens), P61073 [E288A,L290A]; details: HEK293
C-X-C chemokine receptor type 4 (Homo sapiens), P61073 [E288A,L290A], sequence (P61073 whole entry E288A/L290A): as the sequence (P61073 whole entry V280A) above, with A280V, E288A, L290A counted along it

[37] = biological target: C-C chemokine receptor type 2 (Homo sapiens) (UniProt P41597); test: Displacement of [125I]MCP1 form CCR2b expressed in CHO cells by scintillation counting; format: cell-based
C-C chemokine receptor type 2 (Homo sapiens), sequence (P41597 whole entry, looked up): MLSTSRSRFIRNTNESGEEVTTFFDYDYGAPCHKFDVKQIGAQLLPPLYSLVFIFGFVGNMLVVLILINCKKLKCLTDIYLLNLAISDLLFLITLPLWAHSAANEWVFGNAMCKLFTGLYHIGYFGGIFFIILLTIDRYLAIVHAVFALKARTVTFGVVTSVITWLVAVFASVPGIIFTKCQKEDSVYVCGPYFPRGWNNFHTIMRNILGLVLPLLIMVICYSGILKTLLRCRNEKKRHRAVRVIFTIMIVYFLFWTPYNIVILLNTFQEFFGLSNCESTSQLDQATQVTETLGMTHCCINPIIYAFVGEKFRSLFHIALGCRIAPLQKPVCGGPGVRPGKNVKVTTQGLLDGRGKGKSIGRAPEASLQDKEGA

[38] = test system: C-X-C chemokine receptor type 4 (Homo sapiens), P61073 [I284A]; test: (§5) Inhibition of Mab 12G5 binding to CXCR4 I284A mutant expressed in HEK293 cells; format: cell-based
C-X-C chemokine receptor type 4 (Homo sapiens), P61073 [I284A], sequence (P61073 whole entry I284A): as the sequence (P61073 whole entry V280A) above, with A280V, I284A counted along it

[39] = biological target: C-X-C chemokine receptor type 4 (Homo sapiens, UniProt P61073, I284A); test: as §5; format: cell-based
C-X-C chemokine receptor type 4 (Homo sapiens, UniProt P61073, I284A), sequence (P61073 whole entry I284A): as the sequence (P61073 whole entry V280A) above, with A280V, I284A counted along it

C-X-C chemokine receptor type 4 (Homo sapiens), P61073 [E275A], sequence (P61073 whole entry E275A): as the sequence (P61073 whole entry V280A) above, with E275A, A280V counted along it
C-X-C chemokine receptor type 4 (Homo sapiens, UniProt P61073, E275A), sequence (P61073 whole entry E275A): as the sequence (P61073 whole entry V280A) above, with E275A, A280V counted along it

Compound `CCCN(CCC)CCCCN(C)Cc1ccc(CN(Cc2ncc[nH]2)Cc2nccn2C)cc1.O=C(O)C(O)C(O)C(=O)O` has an IC50 [1] of 1 nM, an IC90 [2] of 6.4 nM and an EC50 [3] of 1.3 nM. The IC50 [4] was 1 nM, the IC90 [5] was 6.1 nM and the EC50 [6] was 0.33 nM. For the same compound, the bioavailability [7] was 25.6%, the inhibition [8] was “Dose-dependent effect” and the inhibition [9] was 40%. The Activity [10] was “inactive”, the clearance [11] was 65 mL/min/kg and the IC50 [12] was 3.1 nM. The IC90 [13] was 6.9 nM, the Activity [14] was “inactive” and the half-life [15] was 99 h. For the same compound, the IC90 [16] was 6.3 nM, the Activity [17] was “inactive” and the inhibition [18] was “Active”. It also gave an IC50 [19] of 1.3 nM, an IC50 [20] of 1.6 nM and a Cmax [21] of 86.3 ng/mL. It also gave an IC50 [22] of 0.5 nM, an IC90 [23] of 5.3 nM and an IC50 [24] of 0.6 nM. The IC90 [25] was 248 nM, the IC50 [26] was 14.1 nM and the Activity [27] was “Active”. The inhibition [28] was “Active”, the IC90 [29] was > 10 nM and the IC50 [30] was 0.5 nM. The Activity [31] was <5 pg/mL, the Vd [32] was 374 L/kg and the IC50 [33] was 0.8 nM. For the same compound, the IC50 [34] was 0.7 nM, the IC50 [35] was 0.7 nM and the IC90 [36] was 7.7 nM. For the same compound, the Activity [37] was “inactive”, the IC90 [38] was 6.8 nM and the IC50 [39] was 1.2 nM.

Reference: ChEMBL document CHEMBL1649540, “The novel CXCR4 antagonist KRH-3955 is an orally bioavailable and extremely potent inhibitor of human immunodeficiency virus type 1 infection: comparative studies with AMD3100” (Antimicrob Agents Chemother, 2009)
